{
  "source": "patent US7601884B2",
  "about": "“Method of producing cloned animals by demecolcine treatment” (KNU - Industry Cooperation Foundation, priority 2007, dated 2009)",
  "key": {"[1]": {"tested_on": "recipient pigs transferred with SCNT embryos", "test": "Delivery rate and number of pigs born alive after in vivo transfer of DEM-treated SCNT embryos", "parameters": "species or system pig", "description": "For in vivo transfer of the NT embryos, a naturally-estrous gilt was used as a recipient animal. On the day of the production of the NT embryos, a standing estrus pig was subjected to inhalation anesthesia, and using a common method, cut open to expose the ovaries and oviducts. After confirming the presence of follicle, ovulation and corpus luteum in the ovary, 90 to 160 SCNT embryos activated and treated with DEM were transferred into the oviduct by fimbriae. The recipient pig into which the NT embryos were transferred was monitored to confirm whether or not it was estrus, and a pregnancy test was taken every two weeks, 4 weeks after transfer of the fertilized embryos. When the recipient pig gave birth to live, SCNT embryo-derived offspring, its period of pregnancy, the number of live offspring, their weight, and morphological abnormalities found in any of the live offspring were monitored and recorded.\nThe effect of DEM treatment to the SCNT embryos on delivery rate and the number of pigs born alive was surveyed. Each group of SCNT embryos (107-160/a recipient pig), wherein one was treated with DEM according to Exemplary Embodiment 4 and the other (102-165/a recipient pig) was not treated with DEM, was transferred into 8 to 10 recipient pigs monitored to see whether or not they were estrus. Starting 4 weeks after transfer of the fertilized embryos, they were given pregnancy tests every 2 weeks. When they gave birth to live, SCNT embryo-derived offspring, the period of pregnancy, the number of live offspring, their weight and any morphological abnormalities were monitored and recorded. Further, the number of recipient pigs having live offspring and the number of pigs born alive in a litter were surveyed."}, "SCNT embryos [2]": {"tested_on": "SCNT embryos", "test": "In vitro development of SCNT embryos according to time of DEM treatment", "format": "cell-based, pig", "protocol": "(§1) The SCNT embryos of Exemplary Embodiment 3 and Comparative Example 1 were cultured in vitro with an atmosphere of 5% CO2, 5% O2 and 90% N2 gases. On the second and sixth days of the in vitro culture, their division rates and development to blastocysts were monitored. Further, the blastocysts were stained with bis-benzimide to estimate the number of cells under a fluorescent microscope.\nChange in in vitro development of SCNT embryos depending on the time of DEM treatment was surveyed. The SCNT embryos activated according to Exemplary Embodiment <3-4> were incubated in NCSU-23 culture medium containing 0.4 μg/ml DEM for 2, 4 and 6 hours, respectively, and cultured in vitro by the same method as described in Experimental Example 1, followed by observation of their development to blastocysts."}, "SCNT porcine embryos": {"tested_on": "SCNT porcine embryos", "test": "In vitro development of SCNT porcine embryos after DEM treatment", "format": "cell-based, pig", "protocol": "(§2) After the activation stimulation, the activated embryos were incubated in NCSU-23 culture medium containing 0.4 μg/ml demecolcine (DEM) (Sigma-Aldrich Corp., USA) for 4 hours.\nWith the same method as in Exemplary Embodiment <3-4>, the fused NT embryos were electrically activated, but not treated with DEM.\nAfter activation stimulation, the SCNT embryos were cultured in in vitro culture medium for 6 days in an atmosphere of 5% CO2, 5% O2 and 90% N2 gas.\nas §1"}, "SCNT embryos [3]": {"tested_on": "SCNT embryos", "test": "Production of pseudo-pronuclei of SCNT embryos after DEM treatment", "format": "cell-based, pig", "conditions": "0.4 μg/ml DEM for 4 hours", "protocol": "as §2\nThe oocytes treated with DEM of Exemplary Embodiment 3 or the oocytes of Comparative Example 1 were cultured in vitro for 7 hours, activated, fixed for 11 hours, and stained to estimate the number of pseudo-pronuclei and their production rate. The fixation of the oocytes was performed using a whole-mount method. 10 to 20 oocytes were placed on a slide glass and covered with a cover glass. The oocytes were fixed in a fixative (25% acetic acid in ethanol) at 33° C. for 10 to 20 minutes. The fixed oocytes were stained with 1% orcein (in 45% acetic acid solution) and then the pseudo pronuclei were observed by a phase microscope."}, "[4]": {"conditions": "recipient pig transferred with SCNT embryos treated with DEM"}, "[5]": {"conditions": "0.4 μg/ml DEM for 2 hrs, of N=141"}, "[6]": {"conditions": "0.4 μg/ml DEM for 4 hrs, of N=142"}, "[7]": {"conditions": "0.4 μg/ml DEM for 6 hrs, of N=142"}},
  "data": [
    {"smiles": "CN[C@H]1CCc2cc(OC)c(OC)c(OC)c2-c2ccc(OC)c(=O)cc21", "note": "[DEM, demecolcine]", "values": [
      {"measurement": "No. of Pigs/Litter", "setting": "[1]; SCNT embryos treated with DEM", "result": 3.0},
      {"measurement": "No. of Pigs Born Alive", "setting": "[1]; SCNT embryos treated with DEM, 8 recipient pigs", "result": 12},
      {"measurement": "Recipient Pigs Delivered(%)", "setting": "[1]; SCNT embryos treated with DEM, 107-160 per recipient pig", "result": 50.0, "unit": "%"},
      {"measurement": "No. of Recipient Pigs Delivered", "setting": "[1]; SCNT embryos treated with DEM, 107-160 per recipient pig, of N=8 recipients", "result": 4},
      {"measurement": "delivery rate versus Comparative Example 1 (no DEM)", "setting": "[1]; [4]", "result": "significantly increased"},
      {"measurement": "number of pigs born alive in a litter versus Comparative Example 1 (no DEM)", "setting": "[1]; [4]", "result": "significantly increased"},
      {"measurement": "change in in vitro development of the SCNT embryos according to the time of DEM treatment", "setting": "SCNT embryos [2]; 0.4 μg/ml DEM for 2, 4 and 6 hours", "result": "wasn't a significant change"},
      {"measurement": "Blastocysts (%)", "setting": "SCNT embryos [2]; 0.4 μg/ml DEM for 2 hrs", "result": 24.8, "unit": "%"},
      {"measurement": "No. of Cells/Blastocysts", "setting": "SCNT embryos [2]; 0.4 μg/ml DEM for 2 hrs", "result": "35.3 ± 2.1"},
      {"measurement": "≧2 cells (%)", "setting": "SCNT embryos [2]; 0.4 μg/ml DEM for 2 hrs", "result": 84.4, "unit": "%"},
      {"measurement": "Blastocysts, number of embryos", "setting": "SCNT embryos [2]; [5]", "result": 35},
      {"measurement": "≧2 cells, number of embryos", "setting": "SCNT embryos [2]; [5]", "result": 119},
      {"measurement": "Blastocysts (%)", "setting": "SCNT embryos [2]; 0.4 μg/ml DEM for 4 hrs", "result": 29.6, "unit": "%"},
      {"measurement": "No. of Cells/Blastocysts", "setting": "SCNT embryos [2]; 0.4 μg/ml DEM for 4 hrs", "result": "35.2 ± 1.8"},
      {"measurement": "≧2 cells (%)", "setting": "SCNT embryos [2]; 0.4 μg/ml DEM for 4 hrs", "result": 80.3, "unit": "%"},
      {"measurement": "Blastocysts, number of embryos", "setting": "SCNT embryos [2]; [6]", "result": 42},
      {"measurement": "≧2 cells, number of embryos", "setting": "SCNT embryos [2]; [6]", "result": 114},
      {"measurement": "Blastocysts (%)", "setting": "SCNT embryos [2]; 0.4 μg/ml DEM for 6 hrs", "result": 25.4, "unit": "%"},
      {"measurement": "No. of Cells/Blastocysts", "setting": "SCNT embryos [2]; 0.4 μg/ml DEM for 6 hrs", "result": "30.8 ± 2.7"},
      {"measurement": "≧2 cells (%)", "setting": "SCNT embryos [2]; 0.4 μg/ml DEM for 6 hrs", "result": 78.2, "unit": "%"},
      {"measurement": "Blastocysts, number of embryos", "setting": "SCNT embryos [2]; [7]", "result": 36},
      {"measurement": "≧2 cells, number of embryos", "setting": "SCNT embryos [2]; [7]", "result": 111},
      {"measurement": "in vitro development of SCNT embryos, comparison of treatment times", "setting": "SCNT embryos [2]; 4-hour incubation period with 0.4 μg/ml DEM", "result": "highest level of growth"},
      {"measurement": "≧2-Cell(%)", "setting": "SCNT porcine embryos; 0.4 μg/ml DEM for 4 hours after activation, second day of in vitro culture", "result": 76.8, "unit": "%"},
      {"measurement": "≧2-Cell, number of embryos", "setting": "SCNT porcine embryos; 0.4 μg/ml DEM for 4 hours after activation, second day of in vitro culture, of N=187", "result": 144},
      {"measurement": "Blastocyst(%)", "setting": "SCNT porcine embryos; 0.4 μg/ml DEM for 4 hours after activation, sixth day of in vitro culture", "result": 27.3, "unit": "%"},
      {"measurement": "Blastocyst, number of embryos", "setting": "SCNT porcine embryos; 0.4 μg/ml DEM for 4 hours after activation, sixth day of in vitro culture, of N=187", "result": 51},
      {"measurement": "No. of Cells/Blastocysts", "setting": "SCNT porcine embryos; 0.4 μg/ml DEM for 4 hours, bis-benzimide staining", "result": 39.5},
      {"measurement": "development to blastocysts versus Comparative Example 1 (not treated with DEM)", "setting": "SCNT porcine embryos; embryos treated with DEM, then cultured in vitro", "result": "significantly improved"},
      {"measurement": "1PPN (one pseudo pronucleus) (%)", "setting": "SCNT embryos [3]", "result": 83.7, "unit": "%"},
      {"measurement": "Multi-PPN (2 or more pseudo pronuclei) (%)", "setting": "SCNT embryos [3]", "result": 9.3, "unit": "%"},
      {"measurement": "Others(%)", "setting": "SCNT embryos [3]", "result": 7.0, "unit": "%"},
      {"measurement": "1PPN (one pseudo pronucleus), number of embryos", "setting": "SCNT embryos [3]; of N=43", "result": 36},
      {"measurement": "Multi-PPN (2 or more pseudo pronuclei), number of embryos", "setting": "SCNT embryos [3]; of N=43", "result": 4},
      {"measurement": "Others, number of embryos", "setting": "SCNT embryos [3]; of N=43", "result": 3}
    ]}
  ]
}
